Drawing on patent publication US20250000854A1, “4-(Aminomethyl)-6-(1-Methyl-1H-Pyrazol-4-YL)Isoquinolin-1(2H)-One Derivatives as MTA-Cooperative Inhibitors of PRMT5” (BeiGene, Ltd., priority 2022, published 2025), this text covers IC50 for seven compounds.

Structures can show the parent of a compound that is named as a salt.

In assay [1] the target is T1, human PRMT5/MEP50 enzyme (Homo sapiens (Human), UniProt O14744). Nature of the assay: PRMT5 Biochemical Assay (TR-FRET) in the absence of MTA. As to conditions: without MTA; 10 nM PRMT5/MEP50, 3 μM S-adenosylmethionine, histone H4 peptide. How it is done: (§1) The assay measures the methylation activity of purified human PRMT5/MEP50 enzyme toward histone H4-R3. Compounds disclosed herein were tested for inhibition of PRMT5/MEP50 using PRMT5 TR-FRET Assay Kit (BPS Bioscience) which contains a highly specific antibody that recognizes methylated substrates. The assay was carried out in 384-well low volume black plates in a reaction mixture containing 10 nM PRMT5/MEP50 complex, biotinylated histone H4 peptide, 3 μM S-adenosylmethionine and 0-10 μM compound in buffer containing 50 mM Tris-HCl buffer (pH 8.5), 0.005% BSA, 1 mM TCEP and 0.002% Tween-20. The PRMT5/MEP50 enzyme was incubated with compounds disclosed herein and biotinylated histone H4 peptide for 20 minutes at room temperature. The reaction was initiated by addition of S-adenosylmethionine. After reacting at room temperature for 120 minutes, the detection solution containing Eu-labeled antibody and dye-labeled acceptor in detection buffer was added to the reaction mixture. Plates were sealed and incubated at room temperature for 60 minutes, and the TR-FRET signals (excitation 337 nm, emission 665/620 nm) were recorded on a PHERAstar FSX plate reader (BMG Labtech). The inhibition percentage of PRMT5/MEP50 activity in presence of increasing concentrations of compounds was calculated based on the ratio of fluorescence at 665 nm to that at 620 nm. The IC50 value for each compound was derived from fitting the dose-response % inhibition data to the four-parameter logistic model by Dotmatics. And the compounds were tested in the presence and absence of MTA to evaluate whether the compounds display MTA-cooperative activity.
T1 sequence (O14744 whole entry): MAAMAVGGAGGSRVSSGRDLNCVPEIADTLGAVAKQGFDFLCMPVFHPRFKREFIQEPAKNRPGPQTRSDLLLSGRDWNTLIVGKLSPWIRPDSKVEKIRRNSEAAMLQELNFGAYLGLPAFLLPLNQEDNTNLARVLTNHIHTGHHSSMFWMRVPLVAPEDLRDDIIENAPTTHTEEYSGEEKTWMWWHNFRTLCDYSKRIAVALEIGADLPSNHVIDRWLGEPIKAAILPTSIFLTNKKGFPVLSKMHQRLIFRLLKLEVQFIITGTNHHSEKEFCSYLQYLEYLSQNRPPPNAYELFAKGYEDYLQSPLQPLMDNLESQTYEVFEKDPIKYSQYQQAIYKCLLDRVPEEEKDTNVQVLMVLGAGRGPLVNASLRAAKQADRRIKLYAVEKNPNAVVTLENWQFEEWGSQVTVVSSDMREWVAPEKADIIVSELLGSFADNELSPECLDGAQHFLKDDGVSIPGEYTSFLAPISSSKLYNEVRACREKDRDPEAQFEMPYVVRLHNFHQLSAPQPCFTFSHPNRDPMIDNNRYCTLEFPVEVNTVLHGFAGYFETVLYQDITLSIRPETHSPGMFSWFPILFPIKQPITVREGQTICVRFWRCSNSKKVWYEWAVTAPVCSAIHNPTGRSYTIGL
T1 sequence (Q9BQA1 whole entry partner): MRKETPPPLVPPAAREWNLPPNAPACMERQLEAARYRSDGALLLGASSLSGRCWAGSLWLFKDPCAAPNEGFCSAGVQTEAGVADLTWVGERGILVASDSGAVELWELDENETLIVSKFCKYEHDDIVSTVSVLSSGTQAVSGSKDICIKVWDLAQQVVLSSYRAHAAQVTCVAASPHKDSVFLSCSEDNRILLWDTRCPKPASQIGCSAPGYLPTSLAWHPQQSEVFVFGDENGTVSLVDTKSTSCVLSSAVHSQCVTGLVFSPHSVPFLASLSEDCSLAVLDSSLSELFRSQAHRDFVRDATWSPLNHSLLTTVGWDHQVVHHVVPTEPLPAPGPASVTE
A general note: TR-FRET usually uses a lanthanide donor and a delayed reading to cut background.

Assay [2] concerns the target T1, human PRMT5/MEP50 enzyme. Nature of the assay: PRMT5 Biochemical Assay (TR-FRET) in the presence of MTA. As to conditions: with 800 nM MTA; 10 nM PRMT5/MEP50, 3 μM S-adenosylmethionine, histone H4 peptide. How it is done:
as §1

Usually IC50 stands for the concentration needed to halve the response being measured.

In the case of `Cn1ncc(-c2ccc3c(=O)[nH]cc(CN)c3c2)c1-c1c(F)c(Cl)cc(OC2CC2)c1C#N` [Example 3, 2-(4-(4-(aminomethyl)-1-oxo-1,2-dihydroisoquinolin-6-yl)-1-methyl-1H-pyrazol-5-yl)-4-chloro-6-cyclopropoxy-3-fluorobenzonitrile hydrochloride], the results for the IC50 in assay [1] and in assay [2] were 68 nM and 7.6 nM, respectively.
On to `Cc1cc(-c2c(-c3ccc4c(=O)[nH]cc(CN)c4c3)cnn2C)c(C#N)c2ccccc12` [Example 4, 2-(4-(4-(aminomethyl)-1-oxo-1,2-dihydroisoquinolin-6-yl)-1-methyl-1H-pyrazol-5-yl)-4-methyl-1-naphthonitrile hydrochloride], for which the IC50 in assay [1] was 29 nM; in assay [2], 2.7 nM.
The matching figures for `Cn1ncc(-c2ccc3c(=O)[nH]cc(CN)c3c2)c1-c1cc(Cl)cc(OC2CC2)c1C#N` [Example 2, 2-(4-(4-(aminomethyl)-1-oxo-1,2-dihydroisoquinolin-6-yl)-1-methyl-1H-pyrazol-5-yl)-4-chloro-6-cyclopropoxybenzonitrile hydrochloride]: 77 nM and 3.3 nM.
Regarding `Cn1ncc(-c2ccc3c(=O)[nH]cc(CN)c3c2)c1-c1cccc(OC2CC2)c1C#N` [Example 6, 2-(4-(4-(aminomethyl)-1-oxo-1,2-dihydroisoquinolin-6-yl)-1-methyl-1H-pyrazol-5-yl)-6-cyclopropoxybenzonitrile hydrochloride], the IC50 in assay [1] was 87 nM; in assay [2] it was 3.5 nM.
On to `Cn1ncc(-c2ccc3c(=O)[nH]cc(CN)c3c2)c1-c1cc(C(F)(F)F)cc(OC2CC2)c1C#N` [Example 7, 2-(4-(4-(aminomethyl)-1-oxo-1,2-dihydroisoquinolin-6-yl)-1-methyl-1H-pyrazol-5-yl)-6-cyclopropoxy-4-(trifluoromethyl)benzonitrile hydrochloride], for which the IC50 amounted to 165 nM in assay [1] and 6.2 nM in assay [2].
Take `Cn1ncc(-c2ccc3c(=O)[nH]cc(CN)c3c2)c1-c1c(F)cc2ccccc2c1C#N` [Example 1, 2-(4-(4-(aminomethyl)-1-oxo-1,2-dihydroisoquinolin-6-yl)-1-methyl-1H-pyrazol-5-yl)-3-fluoro-1-naphthonitrile]: the IC50 in assay [1] was 29 nM; in assay [2] it was 3.2 nM.
Take `Cn1ncc(-c2ccc3c(=O)[nH]cc(CN)c3c2)c1-c1cc(Cl)c2ccccc2c1C#N` [Example 5, 2-(4-(4-(aminomethyl)-1-oxo-1,2-dihydroisoquinolin-6-yl)-1-methyl-1H-pyrazol-5-yl)-4-chloro-1-naphthonitrile hydrochloride]: the IC50 worked out at 27 nM in assay [1] and 2.7 nM in assay [2].
